Experimental data taken from patent US20130204033A1, “ANTIPROLIFERATIVE COMPOUNDS, CONJUGATES THEREOF, METHODS THEREFOR, AND USES THEREOF” (Medarex, Inc., priority 2009, published 2013).
Like-named read-outs stand apart in the source and are kept apart here.

How the values were obtained:
Format in all cases: cell-based, human
MDA-MB-231 [1] = experiment: 3H thymidine proliferation assay, MDA-MB-231
Summary of the method: (§1)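 Cells were seeded at 1.0×10^4 cells/well and treated with 1:3 serial dilutions of free compound or conjugate for 72 h. ^3H-thymidine (1.0 μCi/well) was pulsed for the final 24 h, and uptake was measured by scintillation counting. EC50 is the concentration reducing proliferation by 50%.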

UO-31 = experiment: ATP luminescence proliferation assay, UO-31
Description: This example generally describes the procedures used to assay the antiproliferative activity of compounds of this invention or their conjugates. Human tumor cell lines were obtained from the American Type Culture Collection (ATCC), P.O. Box 1549, Manassas, Va. 20108, USA, and cultured according to instruction from the ATCC. Cells were seeded at 1.0×10^3 or 1.0×10^4 cells/well in 96-well plates for 3 h for ATP assays or ^3H thymidine assays, respectively. 1:3 serial dilutions of free (unconjugated) compounds or their conjugates were added to the wells. Plates were allowed to incubate for 24 to 72 h. The ^3H thymidine plates were pulsed with 1.0 μCi of ^3H-thymidine per well for the last 24 hours of the total incubation period, harvested, and read on a Top Count Scintillation Counter (Packard Instruments, Meriden, Conn.). ATP levels in the ATP plates were measured using the […]-GLO® Luminescent Cell Viability kit following the manufacturer's manual and read on a GLOMAX® 20/20 luminometer (both from Promega, Madison, Wis., USA). The EC50 values—the concentration at which an agent inhibits or reduces cell proliferation by 50% —were determined using PRISM™ software, version 4.0 (GraphPad Software, La Jolla, Calif., USA).
Using the ^3H thymidine or the ATP luminescence assay, or both, the activities of compounds of this invention were assayed against the following cancer cell lines: HCT-15 (colorectal cancer, multi-drug resistant (MDR)); Hep3B (liver cancer); LNCaP (prostate cancer, androgen receptor positive (AR^+)); MDA-MB-231 (breast cancer, estrogen receptor, progesterone receptor, and Her2 negative (triple negative)); A2058 (melanoma); U-87 MG (glioblastoma); NCI-H460 (NSCLC); A549 (NSCLC); HPAC (pancreatic cancer, primary); PC3 (prostate cancer, AR); BT474 (breast cancer, Her2 highly positive (Her2hi)); SKOV3 (ovarian cancer, Her2hi); 786-O (renal cancer); UO-31 (renal cancer, MDR); NCI-H740 (SCLC); DMS53 (SCLC); SK-BR3 (breast cancer, Her2hi); ZR-75 (breast cancer, estrogen receptor positive); OVCAR3 (ovarian cancer); HL-60 (APL); OVCAR8/Adr (ovarian cancer, MDR); CEM-Cl (ALL); Nomo-1 (AML); RPMI-8226 (MM)); Raji (lymphoma); SW-480 (colorectal cancer, metastatic); SW-620 (colorectal cancer); and H226 (lung cancer). (Not all compounds were assayed against all cell lines.)
Table 3 provides the data for the ATP luminescence proliferation assays, with an incubation period of 48, 72, or 96 h, as noted.

CEM-C1 = experiment: 3H thymidine proliferation assay, CEM-C1
Summary of the method: as §1

MDA-MB-231 [2] = experiment: ATP luminescence proliferation assay, MDA-MB-231
Summary of the method: (§2)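 ATP luminescence read-out after 48, 72 or 96 h exposure to 1:3 serially diluted unconjugated compounds or conjugates; 1.0×10^3 cells/well plated 3 h before dosing. EC50 = 50% reduction of proliferation.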

H740 = experiment: 3H thymidine proliferation assay, H740
Summary of the method: as §1

Nomo-1 [3] = experiment: ATP luminescence proliferation assay, Nomo-1
Summary of the method: as §2

Nomo-1 [4] = experiment: 3H thymidine proliferation assay, Nomo-1
Summary of the method: as §1

786-O = experiment: ATP luminescence proliferation assay, 786-O
Summary of the method: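 Cells seeded at 1.0×10^3 cells/well for 3 h, then exposed to 1:3 serial dilutions of free compounds or conjugates for 48, 72 or 96 h, as noted. ATP measured by luminescent cell viability kit; EC50 taken as concentration reducing proliferation by 50%.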

DMS53 [5] = experiment: 3H thymidine proliferation assay, DMS53
Summary of the method: as §1

BT474 = experiment: ATP luminescence proliferation assay, BT474
Summary of the method: as §2

DMS53 [6] = experiment: ATP luminescence proliferation assay, DMS53
Summary of the method: as §2

Hep3B = experiment: 3H thymidine proliferation assay, Hep3B
Summary of the method: as §1

HPAC = experiment: 3H thymidine proliferation assay, HPAC
Summary of the method: as §1

RPMI-8226 = experiment: ATP luminescence proliferation assay, RPMI-8226
Summary of the method: as §2

SK-BR3 = experiment: ATP luminescence proliferation assay, SK-BR3
Summary of the method: as §2

A2058 = experiment: ATP luminescence proliferation assay, A2058
Summary of the method: as §2

LNCaP = experiment: 3H thymidine proliferation assay, LNCaP
Summary of the method: as §1

HCT-15 = experiment: 3H thymidine proliferation assay, HCT-15
Summary of the method: as §1

[7] = 3H thymidine method, 72 h incubation, read-out: EC50, MDA-MB-231
[8] = ATP luminescence, UO-31, 48 h incubation, read-out: EC50 UO-31 (48 h)
[9] = 3H thymidine method, 72 h incubation, read-out: EC50, CEM-C1
[10] = ATP luminescence, MDA-MB-231, 72 h incubation, read-out: EC50 MDA-MB-231 (72 h)
[11] = 3H thymidine method, 72 h incubation, read-out: EC50, H740
[12] = 3H thymidine method, 72 h incubation, read-out: EC50, Nomo-1
[13] = ATP luminescence, 786-O, 72 h incubation, read-out: EC50 786-O (72 h)
[14] = 3H thymidine method, 72 h incubation, read-out: EC50, DMS53
[15] = ATP luminescence, BT474, 48 h incubation, read-out: EC50 BT474 (48 h)
[16] = ATP luminescence, DMS53, 72 h incubation, read-out: EC50 DMS53 (72 h)
[17] = 3H thymidine method, 72 h incubation, read-out: EC50, Hep3B
[18] = 3H thymidine method, 72 h incubation, read-out: EC50, HPAC
[19] = ATP luminescence, RPMI-8226, 72 h incubation, read-out: EC50 RPMI-8226 (72 h)
[20] = ATP luminescence, SK-BR3, 48 h incubation, read-out: EC50 SK-BR3 (48 h)
[21] = ATP luminescence, A2058, 72 h incubation, read-out: EC50 A2058 (72 h)
[22] = 3H thymidine method, 72 h incubation, read-out: EC50, LNCaP
[23] = 3H thymidine method, 72 h incubation, read-out: EC50, HCT-15
[24] = ATP luminescence, Nomo-1, 48 h incubation, read-out: EC50 Nomo-1 (48 h)

Compound | EC50 (MDA-MB-231 [1]; [7]) [nM] | EC50 (UO-31; [8]) [nM] | EC50 (CEM-C1; [9]) [nM] | EC50 (MDA-MB-231 [2]; [10]) [nM] | EC50 (H740; [11]) [nM] | EC50 (Nomo-1 [4]; [12]) [nM] | EC50 (786-O; [13]) [nM] | EC50 (DMS53 [5]; [14]) [nM] | EC50 (BT474; [15]) [nM] | EC50 (DMS53 [6]; [16]) [nM] | EC50 (Hep3B; [17]) [nM] | EC50 (HPAC; [18]) [nM] | EC50 (RPMI-8226; [19]) [nM] | EC50 (SK-BR3; [20]) [nM] | EC50 (A2058; [21]) [nM] | EC50 (LNCaP; [22]) [nM] | EC50 (HCT-15; [23]) [nM] | EC50 (Nomo-1 [3]; [24]) [nM] | other results
CC[C@H](C)[C@H](NC(=O)[C@H]1CCCCN1C)C(=O)N(COC(=O)CC(C)C)[C@H](C[C@@H](O)c1nc(C(=O)N[C@@H](Cc2ccccc2)C(=O)OC)cs1)C(C)C [Compound 28] | > 100 | 5.8 | 10 | 16 | 5.8 | 0.2 | 29 | > 100 | 12 | 58 | 24 | 34 | 10 | 7.8 | 20 | 64 | 223 |  | EC50 (Nomo-1 [3]; ATP luminescence, Nomo-1, 72 h incubation, read-out: EC50 Nomo-1 (72 h)): 0.82 nM
CC[C@H](C)[C@H](NC(=O)[C@H]1CCCCN1C)C(=O)N(COC(=O)CC(C)C)[C@H](C[C@@H](OC(C)=O)c1nc(C(=O)N[C@@H](Cc2ccccc2)C(=O)OC)cs1)C(C)C [Compound 29] | 0.13 | 2.7 | 0.019 | 5.1 | 0.41 | 0.0075 | 2.8 | 0.28 | 1.5 |  | 0.041 | 0.069 | 1 | 3.6 | 2.9 | 0.54 | 0.18 | 0.24 | EC50 (DMS53 [6]; ATP luminescence, DMS53, 48 h incubation, read-out: EC50 DMS53 (48 h)): 5.3 nM
CC[C@H](C)[C@H](NC(=O)[C@H]1CCCCN1C)C(=O)N(COC)[C@H](C[C@@H](OC)c1nc(C(=O)N[C@@H](Cc2ccccc2)C(=O)OC)cs1)C(C)C [Compound 29c] | 4.8 | 26 | 45 |  | 5.3 | 0.43 | 34 | 76 | 492 | 17 | 3 | 32 |  | 278 |  | 5.2 | 2.4 | 2.9 | EC50 (MDA-MB-231 [2]; ATP luminescence, MDA-MB-231, 48 h incubation, read-out: EC50 MDA-MB-231 (48 h)): 52 nM; EC50 (RPMI-8226; ATP luminescence, RPMI-8226, 48 h incubation, read-out: EC50 RPMI-8226 (48 h)): 70 nM; EC50 (A2058; ATP luminescence, A2058, 48 h incubation, read-out: EC50 A2058 (48 h)): 32 nM
CC[C@H](C)[C@H](NC(=O)[C@H]1CCCCN1C)C(=O)N(C)[C@H](C[C@@H](OC(C)=O)c1nc(C(=O)N[C@@H](Cc2ccc(N)cc2)CC(C)C(=O)O)cs1)C(C)C (stereo partly drawn) [Compound 36] |  |  |  |  |  |  |  |  |  |  |  |  |  |  |  |  |  |  | EC50 (MDA-MB-231 [1]; Homo sapiens, MDA-MB-231, read-out: EC50, MDA-MB-231, 3H thymidine method, 72 h incubation): > 100 nM; EC50 (UO-31; Homo sapiens, UO-31, 48 h, read-out: EC50 UO-31 (48 h), ATP luminescence, UO-31, 48 h incubation): 8.8 nM; EC50 (CEM-C1; Homo sapiens, CEM/C1, read-out: EC50, CEM-C1, 3H thymidine method, 72 h incubation): 44 nM; EC50 (MDA-MB-231 [2]; Homo sapiens, MDA-MB-231, 72 h, read-out: EC50 MDA-MB-231 (72 h), ATP luminescence, MDA-MB-231, 72 h incubation): 9.6 nM; EC50 (H740; Homo sapiens, read-out: EC50, H740, 3H thymidine method, 72 h incubation): > 100 nM; EC50 (Nomo-1 [3]; Homo sapiens, NOMO-1, 48 h, read-out: EC50 Nomo-1 (48 h), ATP luminescence, Nomo-1, 48 h incubation): 34 nM; EC50 (Nomo-1 [4]; Homo sapiens, NOMO-1, read-out: EC50, Nomo-1, 3H thymidine method, 72 h incubation): 124 nM; EC50 (786-O; Homo sapiens, 786-0, 72 h, read-out: EC50 786-O (72 h), ATP luminescence, 786-O, 72 h incubation): 183 nM; EC50 (DMS53 [5]; Homo sapiens, DMS-53, read-out: EC50, DMS53, 3H thymidine method, 72 h incubation): > 100 nM; EC50 (BT474; Homo sapiens, BT-474, 48 h, read-out: EC50 BT474 (48 h), ATP luminescence, BT474, 48 h incubation): ~120 nM; EC50 (DMS53 [6]; Homo sapiens, DMS-53, 48 h, read-out: EC50 DMS53 (48 h), ATP luminescence, DMS53, 48 h incubation): ~300 nM; EC50 (Hep3B; Homo sapiens, Hep3B, read-out: EC50, Hep3B, 3H thymidine method, 72 h incubation): 39 nM; EC50 (HPAC; Homo sapiens, HPAC, read-out: EC50, HPAC, 3H thymidine method, 72 h incubation): 83 nM; EC50 (RPMI-8226; Homo sapiens, RPMI-8226, 72 h, read-out: EC50 RPMI-8226 (72 h), ATP luminescence, RPMI-8226, 72 h incubation): 62 nM; EC50 (SK-BR3; Homo sapiens, SK-BR-3, 48 h, read-out: EC50 SK-BR3 (48 h), ATP luminescence, SK-BR3, 48 h incubation): > 300 nM; EC50 (A2058; Homo sapiens, A2058, 72 h, read-out: EC50 A2058 (72 h), ATP luminescence, A2058, 72 h incubation): 43 nM; EC50 (LNCaP; Homo sapiens, LNCaP, read-out: EC50, LNCaP, 3H thymidine method, 72 h incubation): 342 nM; EC50 (HCT-15; Homo sapiens, HCT-15, read-out: EC50, HCT-15, 3H thymidine method, 72 h incubation): 64 nM
